Common to all, as to assay type: biochemical
One experiment has as its target T1, sucrase (Homo sapiens, UniProt P14410).
T1 construct: suspending small intestinal brush border membrane vesicles in 0.1 M maleic acid buffer (pH 6.0); from tissue; host or cells: small intestinal brush border membrane vesicles
The experiment in a line: α-glycosidase-inhibiting activity, sucrase (small intestinal brush border membrane vesicles). Conditions: substrate sucrose (74 mM), 0.1 M maleic acid buffer pH 6.0, 37° C., 30 minutes, glucose-oxidase method. As for the experimental part:
(§1) The compounds (6a), (6b), (6c) and (6d), each prepared by Example 25, as well as the compound (6g) prepared by Example 27 were each measured for α-glycosidase-inhibiting activity. […] To each of sucrose (74 mM), maltose (74 mM) and isomaltose (74 mM) solution as a substrate, there was added a solution (0.05 ml) of a test compound in various concentrations, and the resulting mixture was pre-heated at 37° C. for 2 to 3 minutes, followed by addition of an enzyme solution and reaction for 30 minutes. Thereafter, water was added and the resulting mixture was heated in a boiling water bath for 2 minutes in order to inactivate the enzyme. Separately, the enzyme solution was added to each of the test solutions and immediately thereafter heated in boiling water bath for 2 minutes to inactivate the enzyme. This solution was used as a blank. The amount of […] D-glucose was measured in accordance with glucose-oxidase method. The substrate and test compounds were used in a solution of 0.1 M maleic acid buffer (pH 6.0). A 50% inhibitory concentration (IC50) was calculated from the value observed.

The target of a further experiment is maltase. The experiment is described as follows: α-glycosidase-inhibiting activity, maltase (small intestinal brush border membrane vesicles). To be noted: substrate maltose (74 mM), 0.1 M maleic acid buffer pH 6.0, 37° C., 30 minutes, glucose-oxidase method. As for the experimental part: as §1
The next experiment deals with T2, isomaltase (Homo sapiens, UniProt P14410).
T2 construct: suspending small intestinal brush border membrane vesicles in 0.1 M maleic acid buffer (pH 6.0); from tissue; host or cells: small intestinal brush border membrane vesicles
T2 sequence (P14410 whole entry, species assumed): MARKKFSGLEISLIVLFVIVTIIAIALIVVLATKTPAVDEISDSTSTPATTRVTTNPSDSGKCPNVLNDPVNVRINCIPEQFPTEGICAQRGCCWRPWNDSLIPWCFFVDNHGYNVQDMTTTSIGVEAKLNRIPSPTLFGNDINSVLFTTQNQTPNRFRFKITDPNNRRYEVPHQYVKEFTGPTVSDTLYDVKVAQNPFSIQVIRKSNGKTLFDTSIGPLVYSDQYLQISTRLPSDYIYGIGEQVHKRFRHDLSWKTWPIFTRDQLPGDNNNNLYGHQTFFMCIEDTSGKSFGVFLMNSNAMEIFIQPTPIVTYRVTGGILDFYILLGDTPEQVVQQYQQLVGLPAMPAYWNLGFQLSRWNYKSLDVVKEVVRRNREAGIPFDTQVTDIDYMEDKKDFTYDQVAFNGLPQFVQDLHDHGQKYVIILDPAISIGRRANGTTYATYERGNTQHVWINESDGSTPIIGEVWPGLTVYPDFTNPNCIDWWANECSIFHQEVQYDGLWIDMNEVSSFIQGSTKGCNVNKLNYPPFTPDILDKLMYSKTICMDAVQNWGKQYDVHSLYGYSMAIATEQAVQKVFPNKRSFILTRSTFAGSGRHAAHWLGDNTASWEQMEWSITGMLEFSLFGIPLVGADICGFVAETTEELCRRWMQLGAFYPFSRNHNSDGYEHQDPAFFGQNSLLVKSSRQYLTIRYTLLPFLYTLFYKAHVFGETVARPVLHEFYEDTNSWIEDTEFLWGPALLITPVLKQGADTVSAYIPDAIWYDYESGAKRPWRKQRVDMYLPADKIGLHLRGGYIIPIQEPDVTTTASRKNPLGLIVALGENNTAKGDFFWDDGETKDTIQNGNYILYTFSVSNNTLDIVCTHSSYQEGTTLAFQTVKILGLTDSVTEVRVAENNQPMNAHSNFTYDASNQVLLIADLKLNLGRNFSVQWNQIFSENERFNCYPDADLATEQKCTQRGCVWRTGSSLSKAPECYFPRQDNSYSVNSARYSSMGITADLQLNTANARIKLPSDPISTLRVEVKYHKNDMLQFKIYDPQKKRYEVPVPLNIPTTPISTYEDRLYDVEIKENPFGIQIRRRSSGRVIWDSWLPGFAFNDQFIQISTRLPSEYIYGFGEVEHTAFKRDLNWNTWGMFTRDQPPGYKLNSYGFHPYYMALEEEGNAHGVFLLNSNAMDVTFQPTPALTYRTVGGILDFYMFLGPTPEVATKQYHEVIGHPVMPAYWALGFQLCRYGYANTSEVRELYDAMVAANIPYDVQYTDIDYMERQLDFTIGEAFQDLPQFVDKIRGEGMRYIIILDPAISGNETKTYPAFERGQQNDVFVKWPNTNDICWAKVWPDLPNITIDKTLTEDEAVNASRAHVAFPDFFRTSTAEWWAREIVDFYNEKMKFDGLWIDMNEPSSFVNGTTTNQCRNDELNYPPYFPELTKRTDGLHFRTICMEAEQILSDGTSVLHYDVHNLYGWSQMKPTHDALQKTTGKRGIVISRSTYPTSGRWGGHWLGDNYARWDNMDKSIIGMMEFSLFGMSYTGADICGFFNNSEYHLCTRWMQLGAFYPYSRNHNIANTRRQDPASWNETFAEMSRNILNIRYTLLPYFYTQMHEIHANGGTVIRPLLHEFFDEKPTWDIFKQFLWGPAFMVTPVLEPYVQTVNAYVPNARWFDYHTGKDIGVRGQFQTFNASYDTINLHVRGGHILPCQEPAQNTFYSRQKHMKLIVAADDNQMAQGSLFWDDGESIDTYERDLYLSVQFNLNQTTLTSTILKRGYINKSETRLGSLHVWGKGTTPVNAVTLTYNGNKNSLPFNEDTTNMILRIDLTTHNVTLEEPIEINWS
The experiment is described as follows: α-glycosidase-inhibiting activity, isomaltase (small intestinal brush border membrane vesicles). Conditions: substrate isomaltose (74 mM), 0.1 M maleic acid buffer pH 6.0, 37° C., 30 minutes, glucose-oxidase method. As for the experimental part: as §1

≈ marks a conversion by molar mass, not a printed value.

A word on the IC50: it is the concentration needed to halve the response being measured.

T1 sequence (P14410 whole entry, species assumed): as above

Consider `O=S(=O)([O-])OC(C(O)C[S+]1CC(O)C(O)C1CO)C(O)C(O)C(O)CO` (stereo not drawn) [Compound (6c)], for which the values for the IC50 against sucrase and at isomaltase were 214 µM and 16.2 µM, respectively. Moreover, at maltase, the “IC50, maltase” value is over 100 µg/mL.

As for `O=S(=O)([O-])OC(C(O)C[S+]1CC(O)C(O)C1CO)C(O)C(O)C(O)CO` (single isomer, unassigned) [Compound (6b)], the IC50 was 136 µM on sucrase and 10.8 µM on isomaltase. The “IC50, maltase” value at maltase was over 100 µg/mL.

In the case of `O=S(=O)([O-])OC(C(O)C[S+]1CC(O)C(O)C1CO)C(O)C(O)C(O)CO` (single isomer, unassigned) [Compound (6g)], the IC50 was over 236 µM against sucrase and 158 µM on isomaltase. For the same compound, the “IC50, maltase” value against maltase is over 100 µg/mL.

Consider `O=S(=O)([O-])OC(C(O)C[S+]1CC(O)C(O)C1CO)C(O)C(O)C(O)CO` (single isomer, unassigned) [Compound (6d)], for which the IC50 against sucrase is 32.3 µM; at isomaltase it was 6.53 µM. At maltase, the “IC50, maltase” value worked out at 24.8 µg/mL (≈ 58.4 µM).

As to `O=S(=O)([O-])OC(C(O)C[S+]1CC(O)C(O)C1CO)C(O)C(O)C(O)CO` (single isomer, unassigned) [kotalanol, reference compound], the values for the IC50 on sucrase and on isomaltase were 0.754 µM and 5.68 µM, respectively. For the same compound, at maltase, the “IC50, maltase” value worked out at 3.07 µg/mL (≈ 7.23 µM).

For `O=S(=O)([O-])OC(C(O)C[S+]1CC(O)C(O)C1CO)C(O)C(O)C(O)CO` (single isomer, unassigned) [Compound (6a)], the IC50 was 66.9 µM at sucrase and 1.63 µM against isomaltase. Moreover, the “IC50, maltase” value on maltase came out at 20.6 µg/mL (≈ 48.5 µM).

The record behind these values is patent US20100063302A1, “CYCLIC SULFONIUM SALT, METHOD FOR PRODUCTION OF CYCLIC SULFONIUM SALT, AND GLYCOSIDASE INHIBITOR” (Takano Co., Ltd., priority 2007, published 2010).
